Test results: patent US20240209371A1, “COMPOSITIONS AND METHODS FOR TREATING CANCER” (Dana-Farber Cancer Institute, Inc., priority 2021, published 2024)

Legend:
Format in all cases: cell-based
[1] = tested on: CRISPR-modified PC9 cell lines; experiment: Cell viability assay of parental or CRISPR-modified PC9 cells with osimertinib
Method: Parental or CRISPR-modified PC9 cell lines (1×10^3 cells) were plated in 384-well plates. After 24 hours, cells were treated with drugs at the indicated concentrations for 72 hours. Endpoint cell viability assays were performed using Cell Titer Glo (Promega). RAS mutant cell lines (2×10^3 cells) were seeded in 384 ultra-low attachment plates as suspension cells and evaluated using 3D-Cell Titer Glo (Promega). RAS mutant cells were treated with trametinib for 3 days and with antisense oligos or siRNA for 8 days.

[2] = tested on: ERK1/2; experiment: Western blot after osimertinib treatment in PC9 cells
Method: (§1) Cells were lysed with RIPA buffer (Boston Bioproducts) supplemented with complete Mini EDTA-free Protease inhibitor cocktail (Roche) and PhoSTOP phosphatase inhibitor cocktail (Roche). The total cell lysate (20 ug) was subjected to SDS polyacrylamide gel electrophoresis and transferred to Immobilon-P polyvinylidene difluoride membranes (Bio-Rad Laboratories). Antibodies are listed in supplementary table 10. RAS-GTP was evaluated using the Active Ras Detection Kit (#8821, Cell Signaling Technology). Cells were cultured with media containing 0.1% FBS with or without 1 μM osimertinib for 24 hours, and 80 ug of GST-Raf1-RBD and 500 ug of protein lysates were used according to the manufacturer's instructions.

[3] = tested on: RAS-GTP; experiment: RAS-GTP assay in KRAS expressing PC9 cell lines
Method: as §1

[4] = tested on: Q61 mutant cells; experiment: Exon skipping by PS+2′MOE antisense oligos in Q61 mutant cells; conditions: in vitro
Method: RNA was extracted using the RNeasy Mini kit (Qiagen) and cDNA was synthesized using the QuantiTect Reverse Transcription Kit (Qiagen). Isoforms were amplified using gene-specific-primers (FIG. 24) and amplicons were resolved on a 2% agarose gel. Isoforms were characterized by Sanger sequencing.
RAS mutant cell lines in culture media were treated in suspension with indicated concentrations of morpholino and 3-6 μM endo-porter (Gene Tools). Duration of treatment was 2 days for RNA experiments, 3 days for western blot, and 8 days for growth-inhibition assay based on previously published treatment protocols with KRAS selective inhibitors against RAS mutant cells^4. In all experiments using full PS+2′MOE antisense oligos, medium was enriched with Ca^2+. Ca^2+ enrichment of medium potentiates the in vitro activity of multiple types of oligonucleotides and is more reflective of in vivo conditions than conventional transfection methods^42. Duration of treatment was 2 days for RNA experiments, 6 days for western blot, and 8 days for growth-inhibition assay.

[5] = tested on: mutant KRAS pre-mRNA; experiment: NGS of remaining full-length KRAS transcript in SW948 cells; conditions: dose dependent, decreased from 44%
Source text: The use of mutant selective antisense oligos can be used to induce aberrant splicing only in tumor cells, but not in normal cells lacking the Q61 mutation, minimizing off target toxicity (FIG. 4 panel a). Using this approach, we induced skipping of whole exon 3 in the KRAS GQ60GK lung cancer CALU6 cell line, in a dose dependent manner (FIG. 4 panel b). […] To assess the selectivity of the morpholino for the KRAS mutant over wild type transcript, the identity of the full-length pre-mRNA contributing to the exon 3 spliced mRNA following morpholino treatment needed to be determined. […] We PCR-amplified KRAS cDNA generated from morpholino treated SW948 cells, separated it by gel electrophoresis and analyzed by NGS the remaining full-length transcript, in order to obtain the ratio of mutant versus wild type KRAS pre-mRNA targeted by the morpholino. […] We next evaluated the effect of these oligos on cell growth. As not all RAS mutant cell lines are dependent on RAS signaling for their growth^28, we determined RAS dependency of each of the Q61 mutant cell lines using KRAS, NRAS or HRAS specific siRNAs, and compared our findings to published gene effect scores for dependency by RNAi and CRISPR knock out obtained from Depmap (depmap.org) (FIG. 4 panel e). […] We also evaluated MEK inhibitor sensitivity in a panel of these cell lines using trametinib (FIG. 10 panel b). […]

## C=CC(=O)Nc1cc(Nc2nccc(-c3cn(C)c4ccccc34)n2)c(OC)cc1N(C)CCN(C)C [osimertinib]
[1]; 1 μM osimertinib
  effect of osimertinib on KRAS G12C, G12D, A146T, or BRAF V600E clones: largely unaffected
[1]; heterozygous mutations
  osimertinib sensitivity of PC9 with heterozygous KRAS GQ60GK or Q61H: resistance
[1]; single-cell clones
  osimertinib sensitivity of PC9 clones harboring KRAS Q61K without silent mutation: growth inhibition comparable to that of parental PC9 cells
[2]; PC9 KRAS GQ60GK
  ERK1/2 activation following osimertinib, KRAS GQ60GK c.180_181 delinsAA cells: persistent ERK1/2 activation
[2]; PC9 KRAS Q61K alone
  ERK1/2 activation following osimertinib, KRAS Q61K alone cells: not in cells expressing KRAS Q61K alone
[3]; PC9 KRAS GQ60GK
  RAS-GTP levels after osimertinib, KRAS GQ60GK: minimally affected
[3]; PC9 Q61K or parental
  RAS-GTP after osimertinib, KRAS Q61K single mutant or KRAS wild type parental PC9: decrease in RAS-GTP

## PS+MOE 1-3: 20nt PS+2′MOE antisense oligo; 1-3 sequence 5′-ACTCCTCTTTGCCTGCTGTG-3′ (all 2'-MOE, all phosphorothioate, methylation of C not given here)
[4]
  mutant selective exon skipping compared with morpholino oligos: mutant selective skipping at a much lower concentration

## mor-4: morpholino targeting KRAS Q61L; M4 / mor-4-4 sequence 5′-GTACTCCTCTAGACCTGCTGTGTCG-3′ (all phosphorodiamidate morpholino (PMO))
[5]
  fraction of mutant KRAS pre-mRNA within the full-length transcript species: 22%
